The test system of experiment [1] is HCC827. As to the kind of experiment: Antitumor activity against erlotinib-resistant doxycycline-induced RICTOR-knockdown human HCC827 cells xenografted in mouse assessed as inhibition of tumor growth. It is filed as functional, cell-based. (In general: In xenograft studies the graft and the host belong to different species.)
The subject of experiment [2] is HCC827. Description: Antiproliferative activity against doxycycline-induced RICTOR-knockdown human HCC827 cells. It is filed as functional, cell-based.
In experiment [3] the test system is HCC827. Description: Antiproliferative activity against erlotinib-resistant doxycycline-induced RICTOR-knockdown human HCC827 cells assessed as fold decrease in compound IC50. It is filed as functional.
Experiment [4] has as its system PC-9. As to the kind of experiment: Antiproliferative activity against doxycycline-induced RICTOR-knockdown human PC-9 cells. It is filed as functional, cell-based.
Experiment [5] has as its system HCC827. As to the kind of experiment: Antitumor activity against erlotinib-resistant doxycycline-induced RICTOR-knockdown human HCC827 cells xenografted in mouse assessed as decrease in Axl expression. The experiment is classed as functional, cell-based.
In experiment [6] the test system is NCI-H1703. As to the kind of experiment: Inhibition of RICTOR-amplified human NCI-H1703 cells invasion. The experiment is classed as functional, cell-based.
Experiment [7] concerns NCI-H1703. As to the kind of experiment: Inhibition of RICTOR-amplified human NCI-H1703 cells migration. It is filed as functional, cell-based.
Experiment [8] deals with NCI-H23. Description: Inhibition of RICTOR-amplified human NCI-H23 cells migration. The experiment is classed as functional, cell-based.
Experiment [9] deals with NCI-H23. As to the kind of experiment: Inhibition of RICTOR-amplified human NCI-H23 cells invasion. The experiment is classed as functional, cell-based.
For experiment [10], the system named is HCC827. As to the kind of experiment: Inhibition of RICTOR-upregulated human HCC827 cell migration. The experiment is classed as functional, cell-based.
Experiment [11] deals with NCI-H23. As to the kind of experiment: Antitumor activity against RICTOR-knockdown human NCI-H23 cells xenografted in mouse assessed as inhibition of tumor growth. The experiment is classed as functional.
Experiment [12] deals with HCC827. Description: Inhibition of RICTOR-upregulated human HCC827 cell invasion. It is filed as functional, cell-based.
For experiment [13], the system named is HCC827. As to the kind of experiment: Induction of apoptosis in RICTOR-upregulated human HCC827 cells. It is filed as functional, cell-based.
Experiment [14] deals with HCC827. As to the kind of experiment: Induction of apoptosis in erlotinib-resistant human HCC827 cells with RICTOR-knockdown. It is filed as functional, cell-based.
Experiment [15] deals with PC-9. Description: Down-regulation of Axl in RICTOR-knockdown human PC-9 cells assessed as half-life of Axl. The experiment is classed as functional, cell-based.

Each structure is given as a SMILES string. Activity calls are given as the source filed them. The calls are words filed in the database; no cut-off is given here.

From ChEMBL document CHEMBL5050837, “Rictor-targeted therapy in the management of brain metastases” (2021) come the findings set out here.

The term TGI denotes how far tumour growth fell short of that in controls.

Consider `C#Cc1cccc(Nc2ncnc3cc(OCCOC)c(OCCOC)cc23)c1` [ERLOTINIB], for which the result with HCC827 [1], with HCC827 [2], in the experiment on PC-9 [4] and with HCC827 [5] was Active. In the experiment on HCC827 [3], the “fold change (FC)” value was 1000.

As for `CNC(=O)c1cccc(-c2ccc3c(N4CCOC[C@@H]4C)nc(N4CCOC[C@@H]4C)nc3n2)c1`, the inhibition entry in the experiment with NCI-H1703 [6], in the experiment with NCI-H1703 [7], in the experiment with NCI-H23 [8] and with NCI-H23 [9] was “Active” in each case.

On to `CC(C)n1nc(-c2ccc3oc(N)nc3c2)c2c(N)ncnc21` [SAPANISERTIB], for which the inhibition result with NCI-H1703 [6], with HCC827 [10], in the experiment on HCC827 [12], with NCI-H1703 [7], in the experiment on NCI-H23 [8] and in the experiment on NCI-H23 [9] was “Active” each time. Besides, the TGI in the experiment on NCI-H23 [11] is reported as 75%.

Consider `C=CC(=O)Nc1cc(Nc2nccc(-c3cn(C)c4ccccc34)n2)c(OC)cc1N(C)CCN(C)C`, for which the outcome in the experiment with PC-9 [4] and in the experiment with HCC827 [14] was Active. In addition, in the experiment with HCC827 [13], the result was inactive.

For the compound `C[C@@H]1C[C@@H]([C@H](O)CC2CC(=O)NC(=O)C2)C(=O)[C@@H](C)C1`, in the experiment with PC-9 [15], the T1/2 came out at 3.2 h.

Turning to `CN(C)C/C=C/C(=O)Nc1cc2c(Nc3ccc(F)c(Cl)c3)ncnc2cc1O[C@H]1CCOC1`, the result in the experiment with HCC827 [2] was Active.
